Data published in US6770596B1, “Fused tricyclic compounds, process for their preparation, and herbicidal compositions containing them” (Ishihara Sangyo Kaisha Ltd., priority 2002, dated 2004).

Tests used:
Type in all cases: in vivo
[1] = tested on: ivyleaf morningglory (Ipomoea hederacea, IPH); test: Post-emerge test, ivyleaf morningglory; details: 250 g ai/ha, 14 days after application, rating scale 0-100 (0 no damage, 100 complete death)
Summary of the method: (§1)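 Seeds were planted in 10 cm pots of sandy loam soil mix 8-21 days ahead. Once the plants reached the 2-3 leaf stage, the compound was sprayed at 8-1000 g ai/ha (acetone, 187 l/ha, 0.25% v/v non-ionic surfactant). Damage was rated 0-100 after 14 days.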

[2] = tested on: barnyardgrass (Echinachloa crus-galli, ECC); test: Post-emerge test, barnyardgrass; details: 250 g ai/ha, 14 days after application, rating scale 0-100 (0 no damage, 100 complete death)
Summary of the method: as §1

[3] = tested on: sicklepod (Cassia obtusifolia, CAO); test: Post-emerge test, sicklepod; details: 250 g ai/ha, 14 days after application, rating scale 0-100 (0 no damage, 100 complete death)
Summary of the method: as §1

[4] = tested on: velvetleaf (Abutilon theophrasti, ABT); test: Pre-emerge test, velvetleaf; details: 250 g ai/ha, 14 days after application, rating scale 0-100 (0 no damage, 100 complete death)
Summary of the method: (§2)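 Seeds sown in sandy loam in 10 cm pots one day before pre-emergence spraying of acetone-dissolved compounds at 8–1000 g ai/ha (187 l/ha, track sprayer), greenhouse. Phytotoxicity rated visually 14 days after application on a 0–100 scale (0 no damage, 100 complete death).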

[5] = tested on: common ragweed (Ambrosia artemisiifolia L., AML); test: Post-emerge test, common ragweed; details: 250 g ai/ha, 14 days after application, rating scale 0-100 (0 no damage, 100 complete death)
Summary of the method: as §1

[6] = tested on: field corn (Zea mays L., var. Dekalb 535, CORN); test: Post-emerge test, crop damage field corn; details: post-emerge, 250 g ai/ha, 14 days after application, rating scale 0-100 (0 no damage, 100 complete death)
Summary of the method: as §1

[7] = tested on: large crabgrass (Digitaria sanguinalis, DIS); test: Pre-emerge test, large crabgrass; details: 250 g ai/ha, 14 days after application, rating scale 0-100 (0 no damage, 100 complete death)
Summary of the method: as §2

[8] = tested on: lambsquarters (Chenopodium album, CHA); test: Pre-emerge test, lambsquarters; details: 250 g ai/ha, 14 days after application, rating scale 0-100 (0 no damage, 100 complete death)
Summary of the method: as §2

[9] = tested on: sicklepod (Cassia obtusifolia, CAO); test: Pre-emerge test, sicklepod; details: 250 g ai/ha, 14 days after application, rating scale 0-100 (0 no damage, 100 complete death)
Summary of the method: as §2

[10] = tested on: velvetleaf (Abutilon theophrasti, ABT); test: Post-emerge test, velvetleaf; details: 250 g ai/ha, 14 days after application, rating scale 0-100 (0 no damage, 100 complete death)
Summary of the method: as §1

[11] = tested on: lambsquarters (Chenopodium album, CHA); test: Post-emerge test, lambsquarters; details: 250 g ai/ha, 14 days after application, rating scale 0-100 (0 no damage, 100 complete death)
Summary of the method: as §1

[12] = tested on: cocklebur (Xanthium strumariunt, XAS); test: Pre-emerge test, cocklebur; details: 250 g ai/ha, 14 days after application, rating scale 0-100 (0 no damage, 100 complete death)
Summary of the method: as §2

[13] = tested on: johnsongrass (Sorghum halepense, SOH); test: Pre-emerge test, johnsongrass; details: 250 g ai/ha, 14 days after application, rating scale 0-100 (0 no damage, 100 complete death)
Summary of the method: as §2

[14] = tested on: soybean (Glycine max L., var. Pella 86, SOY); test: Pre-emerge test, crop damage soybean; details: pre-emerge, 250 g ai/ha, 14 days after application, rating scale 0-100 (0 no damage, 100 complete death)
Summary of the method: (§3)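 Seeds planted 1 day pre-application in sandy loam soil mix; acetone solutions sprayed at 8 to 1000 g ai/ha (187 l/ha, flat fan nozzle, track sprayer). 14 d later, visual damage scored on a 0–100 scale.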

[15] = tested on: green foxtail (Setaria viridis, SEV); test: Pre-emerge test, green foxtail; details: 250 g ai/ha, 14 days after application, rating scale 0-100 (0 no damage, 100 complete death)
Summary of the method: as §2

[16] = tested on: cocklebur (Xanthium strumariunt, XAS); test: Post-emerge test, cocklebur; details: 250 g ai/ha, 14 days after application, rating scale 0-100 (0 no damage, 100 complete death)
Summary of the method: as §1

[17] = tested on: soybean (Glycine max L., var. Pella 86, SOY); test: Post-emerge test, crop damage soybean; details: post-emerge, 250 g ai/ha, 14 days after application, rating scale 0-100 (0 no damage, 100 complete death)
Summary of the method: as §1

[18] = tested on: redroot pigweed (Amaranthus retroflexus, AMR); test: Post-emerge test, redroot pigweed; details: 250 g ai/ha, 14 days after application, rating scale 0-100 (0 no damage, 100 complete death)
Summary of the method: as §1

[19] = tested on: johnsongrass (Sorghum halepense, SOH); test: Post-emerge test, johnsongrass; details: 250 g ai/ha, 14 days after application, rating scale 0-100 (0 no damage, 100 complete death)
Summary of the method: as §1

[20] = tested on: large crabgrass (Digitaria sanguinalis, DIS); test: Post-emerge test, large crabgrass; details: 250 g ai/ha, 14 days after application, rating scale 0-100 (0 no damage, 100 complete death)
Summary of the method: as §1

[21] = tested on: upland rice (Oryza sp., var.Tebonnet, RICE); test: Post-emerge test, crop damage upland rice; details: post-emerge, 250 g ai/ha, 14 days after application, rating scale 0-100 (0 no damage, 100 complete death)
Summary of the method: as §1

[22] = tested on: redroot pigweed (Amaranthus retroflexus, AMR); test: Pre-emerge test, redroot pigweed; details: 250 g ai/ha, 14 days after application, rating scale 0-100 (0 no damage, 100 complete death)
Summary of the method: as §2

[23] = tested on: ivyleaf morningglory (Ipomoea hederacea, IPH); test: Pre-emerge test, ivyleaf morningglory; details: 250 g ai/ha, 14 days after application, rating scale 0-100 (0 no damage, 100 complete death)
Summary of the method: as §2

[24] = tested on: field corn (Zea mays L., var. Dekalb 535, CORN); test: Pre-emerge test, crop damage field corn; details: pre-emerge, 250 g ai/ha, 14 days after application, rating scale 0-100 (0 no damage, 100 complete death)
Summary of the method: as §3

[25] = tested on: wheat (Triticum aestivum); test: Post-emerge test, crop damage wheat; details: post-emerge, 250 g ai/ha, 14 days after application, rating scale 0-100 (0 no damage, 100 complete death)
Summary of the method: as §1

[26] = tested on: upland rice (Oryza sp., var.Tebonnet, RICE); test: Pre-emerge test, crop damage upland rice; details: pre-emerge, 250 g ai/ha, 14 days after application, rating scale 0-100 (0 no damage, 100 complete death)
Summary of the method: as §3

[27] = tested on: common ragweed (Ambrosia artemisiifolia L., AML); test: Pre-emerge test, common ragweed; details: 250 g ai/ha, 14 days after application, rating scale 0-100 (0 no damage, 100 complete death)
Summary of the method: as §2

[28] = tested on: wheat (Triticum aestivum); test: Pre-emerge test, crop damage wheat; details: pre-emerge, 250 g ai/ha, 14 days after application, rating scale 0-100 (0 no damage, 100 complete death)
Summary of the method: as §3

[29] = tested on: barnyardgrass (Echinachloa crus-galli, ECC); test: Pre-emerge test, barnyardgrass; details: 250 g ai/ha, 14 days after application, rating scale 0-100 (0 no damage, 100 complete death)
Summary of the method: as §2

[30] = tested on: green foxtail (Setaria viridis, SEV); test: Post-emerge test, green foxtail; details: 250 g ai/ha, 14 days after application, rating scale 0-100 (0 no damage, 100 complete death)
Summary of the method: as §1

SMILES	Post-emerge Herbicidal Activity IPH (phytotoxicity rating) [1]	Post-emerge Herbicidal Activity ECC (phytotoxicity rating) [2]	Post-emerge Herbicidal Activity CAO (phytotoxicity rating) [3]	Pre-emerge Herbicidal Activity ABT (phytotoxicity rating) [4]	Post-emerge Herbicidal Activity AML (phytotoxicity rating) [5]	Post-emerge crop damage CORN (phytotoxicity rating) [6]	Pre-emerge Herbicidal Activity DIS (phytotoxicity rating) [7]	Pre-emerge Herbicidal Activity CHA (phytotoxicity rating) [8]	Pre-emerge Herbicidal Activity CAO (phytotoxicity rating) [9]	Post-emerge Herbicidal Activity ABT (phytotoxicity rating) [10]	Post-emerge Herbicidal Activity CHA (phytotoxicity rating) [11]	Pre-emerge Herbicidal Activity XAS (phytotoxicity rating) [12]	Pre-emerge Herbicidal Activity SOH (phytotoxicity rating) [13]	Pre-emerge crop damage SOY (phytotoxicity rating) [14]	Pre-emerge Herbicidal Activity SEV (phytotoxicity rating) [15]	Post-emerge Herbicidal Activity XAS (phytotoxicity rating) [16]	Post-emerge crop damage SOY (phytotoxicity rating) [17]	Post-emerge Herbicidal Activity AMR (phytotoxicity rating) [18]	Post-emerge Herbicidal Activity SOH (phytotoxicity rating) [19]	Post-emerge Herbicidal Activity DIS (phytotoxicity rating) [20]	further results
Cn1c(C(F)(F)F)cc(=O)n(-c2c(F)cc3c4c2NC(=O)CN4C(=O)CO3)c1=O [1-1, 8-[1-methyl-6-(trifluoromethyl)-2,4-(1H, 3H)-pyrimidinedione-3-yl]-9-fluoro-5H-pyrazino[1,2,3-de]-1,4-benzoxazine-3,6-(2H, 7H)-dione]	100	60	40	100	65	0	100	100	100	100	98	99	100	100	100	100	95	100	25	0	Post-emerge crop damage RICE (phytotoxicity rating) [21]: 99; Pre-emerge Herbicidal Activity AMR (phytotoxicity rating) [22]: 100; Pre-emerge Herbicidal Activity IPH (phytotoxicity rating) [23]: 100; Pre-emerge crop damage CORN (phytotoxicity rating) [24]: 100; Post-emerge crop damage WHEAT (phytotoxicity rating) [25]: 25; Pre-emerge crop damage RICE (phytotoxicity rating) [26]: 100; Pre-emerge Herbicidal Activity AML (phytotoxicity rating) [27]: 100; Pre-emerge crop damage WHEAT (phytotoxicity rating) [28]: 100; Pre-emerge Herbicidal Activity ECC (phytotoxicity rating) [29]: 100; Post-emerge Herbicidal Activity SEV (phytotoxicity rating) [30]: 95
Cn1nc(-c2c(F)cc3c4c2NC(=O)C(C)(C)N4C(=O)CO3)c(Cl)c1OC(F)F [1-27]	100	100	100	100	98	60	100	100	100	100	100	80	100	35	100	100	100	100	75	60	Post-emerge crop damage RICE (phytotoxicity rating) [21]: 90; Pre-emerge Herbicidal Activity AMR (phytotoxicity rating) [22]: 100; Pre-emerge Herbicidal Activity IPH (phytotoxicity rating) [23]: 100; Pre-emerge crop damage CORN (phytotoxicity rating) [24]: 55; Post-emerge crop damage WHEAT (phytotoxicity rating) [25]: 75; Pre-emerge crop damage RICE (phytotoxicity rating) [26]: 85; Pre-emerge Herbicidal Activity AML (phytotoxicity rating) [27]: 100; Pre-emerge crop damage WHEAT (phytotoxicity rating) [28]: 80; Pre-emerge Herbicidal Activity ECC (phytotoxicity rating) [29]: 100; Post-emerge Herbicidal Activity SEV (phytotoxicity rating) [30]: 100
Cn1nc(-c2c(F)cc3c4c2NC(=O)C(c2ccccc2)N4C(=O)CO3)c(Cl)c1OC(F)F (stereo not drawn) [1-33]	98	65	60	100	70	25	100	100	65	100	99	75	70	15	99	70	60	99	65	25	Post-emerge crop damage RICE (phytotoxicity rating) [21]: 95; Pre-emerge Herbicidal Activity AMR (phytotoxicity rating) [22]: 100; Pre-emerge Herbicidal Activity IPH (phytotoxicity rating) [23]: 70; Pre-emerge crop damage CORN (phytotoxicity rating) [24]: 0; Post-emerge crop damage WHEAT (phytotoxicity rating) [25]: 65; Pre-emerge crop damage RICE (phytotoxicity rating) [26]: 10; Pre-emerge Herbicidal Activity AML (phytotoxicity rating) [27]: 100; Pre-emerge crop damage WHEAT (phytotoxicity rating) [28]: 10; Pre-emerge Herbicidal Activity ECC (phytotoxicity rating) [29]: 55; Post-emerge Herbicidal Activity SEV (phytotoxicity rating) [30]: 95
Cc1nn(-c2c(F)cc3c4c2NC(=O)CN4C(=O)CO3)c(=O)n1C(F)F [1-73]	55	0	0	100	50	0	100	100	90	65	90	65	100	60	100	40	60	30	0	0	Post-emerge crop damage RICE (phytotoxicity rating) [21]: 75; Pre-emerge Herbicidal Activity AMR (phytotoxicity rating) [22]: 100; Pre-emerge Herbicidal Activity IPH (phytotoxicity rating) [23]: 100; Pre-emerge crop damage CORN (phytotoxicity rating) [24]: 100; Post-emerge crop damage WHEAT (phytotoxicity rating) [25]: 0; Pre-emerge crop damage RICE (phytotoxicity rating) [26]: 100; Pre-emerge Herbicidal Activity AML (phytotoxicity rating) [27]: 80; Pre-emerge crop damage WHEAT (phytotoxicity rating) [28]: 90; Pre-emerge Herbicidal Activity ECC (phytotoxicity rating) [29]: 100; Post-emerge Herbicidal Activity SEV (phytotoxicity rating) [30]: 50
